Reference: patent publication US7585460B2, “Method for inhibiting the biological acidification of water in contact with materials containing sulfur” (ENI S.p.A., priority 2003, dated 2009)

What was measured:
Format in all cases: cell-based, Thiobacillus
[1] = system: strains of the Thiobacilli type present in a natural environment; assay: Acidification of TM medium or rainwater with sulfur powder, no inoculation (Example 4)
Source text: To imitate the bacterial growth conditions in a natural environment, the same experiment as Example 1 was repeated without the inoculation of Thiobacilli.
The TM saline medium was compared with a medium consisting of rainwater sterilized at a low temperature by filtration on a membrane of cellulose nitrate (porosity 0.2 microns).
The experiment is aimed at verifying the inhibiting action of NaCl on the acidification of water rich and poor in nutrients in contact with elemental sulfur due to strains of the Thiobacilli type present in a natural environment.

Thiobacilli [2] = assay: Acidification of rainwater in contact with solid sulfur test samples colonized by Thiobacilli (Example 5); conditions: 33 g/l NaCl
Protocol: The following experimental systems were prepared, using test samples of solid sulfur (discoid tables each of about 13 g). • System A: Containing 2 test samples not colonized by microbial cells, placed on the bottom of the container, completely immersed in rainwater (sterilized at a low temperature by micro-filtration); • System A1: Containing two non-colonized test samples, only dampened—by means of a sprayer—with rainwater sterilized by micro-filtration. • System B: Containing 2 colonized test samples (previously immersed in a suspension of 10^8 cells/ml of Thiobacilli and left to dry in the air), placed on the bottom of the container, entirely immersed in micro-filtered rainwater; • System B1: Containing two colonized test samples as per the previous system, only dampened with rainwater sterilized by micro-filtration; • System C: Containing 2 colonized test samples entirely immersed in micro-filtered rainwater, in which 33 g/l of Nacl are dissolved; • System C1: containing 2 colonized test samples only dampened with rainwater sterilized by micro-filtration and containing 33 g/l of NaCl.
The pH variation measurements during 48 days of experimentation are represented in Table 4.

[3] = system: Thiobacilli (microbial consortium); assay: Comparison of NaCl and SLS, TM medium with sulfur flowers and inoculated mixed culture (Example 6); conditions: for O.D. / p.H.: B: 33 g/l of NaCl
Protocol: The experiment was aimed at comparing the action of SLS, a known bacteriostatic for Thiobacilli, and Sodium Chloride on the same microbial consortium.
A series of 6 100 ml flasks containing 50 ml of TM medium (with 0.4 g of sulfur flowers), were inoculated with 1 ml of mixed culture containing 10^8 cells/ml.
• A—2 control flasks containing TM and sulfur, without NaCl; • B—2 flasks with TM, sulfur and 33 g/l of NaCl; • C—2 flasks with TM, sulfur and 20 mg/l of SLS (concentration used in literature as bacteriostatic) The pH values and the bacterial growth were measured over a period of 34 days, by means of the increase in the absorbance.

Thiobacilli [4] = assay: Acidification of water on sulfur block with salt englobed in surface sulfur layer, covered with sand (Example 10); conditions: 3 mm sulfur layer containing sodium chloride (10%), 2 cm sand
Protocol: Two blocks of elemental sulfur with an upper surface of approximately 2500 cm^2 (8.5 Kg of sulfur) are positioned in two containers. The surface of one block is then covered with a fine layer (3 mm) of liquid sulfur containing sodium chloride (10%). The upper surface of each block of sulfur is wetted with 250 ml of a bacterial suspension of Thiobacilli containing over 10^8 bacteria per milliliter. The two blocks are subsequently covered with a 2 cm layer of sand and wetted at regular intervals of time with rainwater until the layer of sand is saturated and the rilling of excess water is produced with respect to the saturation. Rainwater is added every month in a quantity equivalent to a fall of 100 mm.
The containers are exposed to the outside environment for three months. At the end of this period, the pH of the water in contact with the sulfur in the two containers, is measured.

Structure (SMILES): [Cl-].[Na+] [NaCl, Sodium Chloride]
- pH ([1]; Rainwater + NaCl, day 0): 6.0
- pH ([1]; Rainwater + NaCl, day 2): 6.0
- pH ([1]; Rainwater + NaCl, day 4): 6.0
- pH ([1]; Rainwater + NaCl, day 7): 6.0
- pH ([1]; Rainwater + NaCl, day 9): 6.0
- pH ([1]; Rainwater + NaCl, day 11): 6.0
- pH ([1]; Rainwater + NaCl, day 14): 6.0
- pH ([1]; Rainwater + NaCl, day 21): 5.8
- pH ([1]; Rainwater + NaCl, day 23): 5.8
- pH ([1]; TM Medium + NaCl, day 0): 6.0
- pH ([1]; TM Medium + NaCl, day 2): 6.0
- pH ([1]; TM Medium + NaCl, day 4): 6.0
- pH ([1]; TM Medium + NaCl, day 7): 6.0
- pH ([1]; TM Medium + NaCl, day 9): 6.0
- pH ([1]; TM Medium + NaCl, day 11): 6.0
- pH ([1]; TM Medium + NaCl, day 14): 6.0
- pH ([1]; TM Medium + NaCl, day 21): 5.8
- pH ([1]; TM Medium + NaCl, day 23): 5.8
- pH values in the systems (Thiobacilli [2]; System C1: colonized samples only dampened with rainwater, day 0): 6.0
- pH values in the systems (Thiobacilli [2]; System C1: colonized samples only dampened with rainwater, day 3): 5.8
- pH values in the systems (Thiobacilli [2]; System C1: colonized samples only dampened with rainwater, day 5): 5.8
- pH values in the systems (Thiobacilli [2]; System C1: colonized samples only dampened with rainwater, day 7): 5.8
- pH values in the systems (Thiobacilli [2]; System C1: colonized samples only dampened with rainwater, day 10): 5.8
- pH values in the systems (Thiobacilli [2]; System C1: colonized samples only dampened with rainwater, day 12): 5.8
- pH values in the systems (Thiobacilli [2]; System C1: colonized samples only dampened with rainwater, day 15): 5.8
- pH values in the systems (Thiobacilli [2]; System C1: colonized samples only dampened with rainwater, day 21): 5.8
- pH values in the systems (Thiobacilli [2]; System C1: colonized samples only dampened with rainwater, day 29): 5.8
- pH values in the systems (Thiobacilli [2]; System C1: colonized samples only dampened with rainwater, day 32): 5.8
- pH values in the systems (Thiobacilli [2]; System C1: colonized samples only dampened with rainwater, day 35): 5.8
- pH values in the systems (Thiobacilli [2]; System C1: colonized samples only dampened with rainwater, day 38): 5.8
- pH values in the systems (Thiobacilli [2]; System C1: colonized samples only dampened with rainwater, day 42): 5.8
- pH values in the systems (Thiobacilli [2]; System C1: colonized samples only dampened with rainwater, day 46): 5.8
- pH values in the systems (Thiobacilli [2]; System C1: colonized samples only dampened with rainwater, day 48): 5.8
- pH values in the systems (Thiobacilli [2]; System C: colonized samples immersed in rainwater, day 0): 6.0
- pH values in the systems (Thiobacilli [2]; System C: colonized samples immersed in rainwater, day 3): 6.0
- pH values in the systems (Thiobacilli [2]; System C: colonized samples immersed in rainwater, day 5): 6.0
- pH values in the systems (Thiobacilli [2]; System C: colonized samples immersed in rainwater, day 7): 5.8
- pH values in the systems (Thiobacilli [2]; System C: colonized samples immersed in rainwater, day 10): 5.8
- pH values in the systems (Thiobacilli [2]; System C: colonized samples immersed in rainwater, day 12): 5.8
- pH values in the systems (Thiobacilli [2]; System C: colonized samples immersed in rainwater, day 15): 5.8
- pH values in the systems (Thiobacilli [2]; System C: colonized samples immersed in rainwater, day 21): 5.8
- pH values in the systems (Thiobacilli [2]; System C: colonized samples immersed in rainwater, day 29): 5.8
- pH values in the systems (Thiobacilli [2]; System C: colonized samples immersed in rainwater, day 32): 5.8
- pH values in the systems (Thiobacilli [2]; System C: colonized samples immersed in rainwater, day 35): 5.8
- pH values in the systems (Thiobacilli [2]; System C: colonized samples immersed in rainwater, day 38): 5.8
- pH values in the systems (Thiobacilli [2]; System C: colonized samples immersed in rainwater, day 42): 5.8
- pH values in the systems (Thiobacilli [2]; System C: colonized samples immersed in rainwater, day 46): 5.8
- pH values in the systems (Thiobacilli [2]; System C: colonized samples immersed in rainwater, day 48): 5.8
- efficacy of the treatment with respect to that with SLS ([3]; 33 g/l NaCl vs 20 mg/l SLS, possibly due to the different concentrations): greater efficacy
- inhibition of the acidification of water in contact with elemental sulfur ([3]; 33 g/l NaCl, 20 mg/l SLS): capable of inhibiting the acidification
- O.D. ([3]; day 0): 0.014
- p.H. ([3]; day 0): 6.0
- O.D. ([3]; day 3): 0.015
- p.H. ([3]; day 3): 6.0
- O.D. ([3]; day 5): 0.017
- p.H. ([3]; day 5): 6.0
- O.D. ([3]; day 8): 0.023
- p.H. ([3]; day 8): 5.8
- O.D. ([3]; day 11): 0.028
- p.H. ([3]; day 11): 5.8
- O.D. ([3]; day 16): 0.025
- p.H. ([3]; day 16): 5.8
- O.D. ([3]; day 21): 0.026
- p.H. ([3]; day 21): 5.8
- O.D. ([3]; day 23): 0.022
- p.H. ([3]; day 23): 5.8
- O.D. ([3]; day 28): 0.022
- p.H. ([3]; day 28): 5.8
- O.D. ([3]; day 31): 0.026
- p.H. ([3]; day 31): 5.8
- pH (Thiobacilli [4]; day 0): 6.5
- pH (Thiobacilli [4]; day 10): 6.5
- pH (Thiobacilli [4]; day 20): 6.5
- pH (Thiobacilli [4]; day 30): 6.5
- pH (Thiobacilli [4]; day 90): 6.5
